Experimental findings from patent US5330897A, “Sialic acid binding lectin of protozoan origin” (South Alabama Medical Science Foundation, priority 1992, dated 1994) are described below.

Test [1] concerns T. mobilensis hemolysis of erythrocytes. Put plainly: Whole organism hemolysis assay, inhibition. The format is cell-based, Tritrichomonas mobilensis. The source says: Tritrichomonas mobilensis, an enteric parasite of squirrel monkeys, adheres readily to isolated monkey intestinal epithelial cells and agglutinates human erythrocytes in vitro. These activities are mediated by a sialic acid binding lectin. Hemagglutination by either parasites or purified lectin is inhibited by N-acetylneuraminic acid and anti-lectin monoclonal antibody (MAB), but not by 2,3-dehydro-2-desoxy-N-acetylneuraminic acid, a neuraminidase inhibitor. T. mobilensis hemolyzes erythrocytes in a modification of a previously published whole organism hemolysis assay. Hemolysis is inhibited by N-acetylneuraminic acid, 2,3-dehydro-2-desoxy-N-acetylneuraminic acid, anti-lectin MAB, T. mobilensis lectin and other sialic acid binding lectins, fetuin, and colominic acid, but not by asialofetuin, or leupeptin. Desialated erythrocytes are neither agglutinated nor hemolyzed.

The subject of another test is T. mobilensis lectin. Nature of the test: Inhibition of T. mobilensis lectin-mediated hemagglutination. The conditions noted are these: for Minimal Inhibitory Conc.: 2 units of hemagglutinin; for Inhibition of HA activity of purified lectin (in words): concentrations up to 100 mM where stated. The format is biochemical, Tritrichomonas mobilensis.
Test [2] deals with live T. mobilensis flagellates. Put plainly: Inhibition of hemagglutination by live T. mobilensis. The settings on record: sugars up to 100 mM; normal erythrocytes, room temperature.
For test [3], the system named is T. mobilensis attachment to CHO cells. Put plainly: Carbohydrate inhibition of T. mobilensis adherence to CHO cells. The format is cell-based, Tritrichomonas mobilensis. The settings on record: concentration-dependent; other carbohydrates up to 100 mM. The procedure: The kinetics of T. mobilensis-CHO trypsin-dispersed cell interactions were studied in a cell suspension system. Equal volumes (100 μl) of 10^5 CHO cells and 10^6 (unless otherwise specified) trichomonads resuspended in serum-free M199 were mixed in microfuge tubes and incubated at room temperature (unless otherwise stated) with gentle agitation. Periodically the percentage of CHO cells with adherent flagellates was determined microscopically in wet-mount preparations, 100 CHO cells being examined in each preparation.

Test [4] relates to T. mobilensis cell-free lysate hemagglutinin. Put plainly: Inhibition of HA activity of T. mobilensis cell-free lysate. The format is biochemical, Tritrichomonas mobilensis.
Test [5] has as its system T. foetus cell-free lysate hemagglutinin. Put plainly: Inhibition of HA activity of T. foetus cell-free lysate. In kind it is biochemical, Tritrichomonas foetus.
The subject of test [6] is T. augusta cell-free lysate hemagglutinin. Put plainly: Inhibition of HA activity of T. augusta cell-free lysate. The format is biochemical, Tritrichomonas augusta.
The test system of test [7] is sialidase from T. mobilensis. Put plainly: Inhibition of sialidase activity associated with the affinity column. The format is biochemical, Tritrichomonas mobilensis. The conditions noted are these: 1 mM inhibitor. The procedure:
Free sialic acid release from bovine submaxillary mucin was used to determine enzymatic activity. Sample to be tested (total volume 50 μl) was mixed with 250 μl of 0.1M acetate, pH 5.0 and 200 μl of 1% mucin in water. After incubation at 37° for 30 minutes, 0.5 ml of 5% phosphotungstic acid in 2.5N HCl was added with vortexing. Assay tubes were centrifuged at 2000×g for 10 minutes, and 250 μl of the supernatant was assayed for sialic acid by the thiobarbituric acid method (Warren, J. Biol. Chem. 234:1971-1975 (1959)). Activity was calculated as μmoles of sialic acid released during a 30 min incubation at 37°. Controls were identical samples precipitated by phosphotungstic acid before the 37° incubation.
The sialidase(s) from T. mobilensis can be separated from HA activity by carefully controlling elution conditions from the affinity column. […] Affinity purified lectin is not inhibited at inhibitor concentrations up to 100 mM, while the sialidase activity associated with the column is inhibited by 50% at 1 mM inhibitor. […] Alternatively, they may simply reflect the affinity of the sialidase for mucin.

The next test has as its system live T. mobilensis. Put plainly: Slide agglutination of live T. mobilensis by lectins. The format is cell-based, Tritrichomonas mobilensis. The conditions noted are these: carbohydrate 100 mM. As to the method:
Agglutination of live T. mobilensis with lectins with various carbohydrate binding specificities was performed by a slide agglutination assay. Lectin Kit LK-2000 (Vector Laboratories) consisted of the following lectins: concanavalin A (ConA), wheat germ agglutinin (WGA), soybean agglutinin (SBA), gorse seed agglutinin (UEA-1), castor bean agglutinin type 1 (RCA-1), peanut agglutinin (PNA), and horse gram agglutinin (DBA). Limulus polyphemus lectin (LPA) was obtained from Sigma, and Limax flavus (LFA) agglutinin from EY Labs. Lectins and specific carbohydrates were dissolved in buffers recommended by the manufacturers. Twenty five μl of washed T. mobilensis (about 2×10^7 /ml) were placed onto a glass slide. An equal volume of lectin (200 μg/ml) or lectin with specific carbohydrate (final concentration, 100 mM) was added. After mixing for 2 to 3 min, the agglutination was evaluated under a microscope.

For another test, the system named is live cells of T. foetus. Nature of the test: Inhibition of HA by live cells of T. foetus. The format is cell-based, Tritrichomonas foetus.

Some results are limits rather than exact numbers.

On to colominic acid, for which the Inhibition of hemolysis result in test [1] is “inhibited”.
Take `O=C(CO)N[C@H]1[C@H]([C@H](O)[C@H](O)CO)OC(O)(C(=O)O)C[C@@H]1O` (stereo partly shown) [N-glycolylneuraminic acid]: in the test on T. mobilensis lectin (carbohydrates), the “Minimal Inhibitory Conc.” value turned out to be 8.3 mM. For the same molecule, in test [2], the “Inhibition of hemagglutination by live T. mobilensis” value (shortened to “Inhibition of hemagglutination”) was “inhibited”.
Regarding “N-acetylneuraminic acid-lactose [sialyllactose]”, in test [3], the “Inhibition of attachment of parasites to CHO cells” value is given as “inhibited”. The “Inhibition of hemagglutination” value in test [2] was “inhibited”.
Consider `CC(=O)N[C@H]1[C@H]([C@H](O)[C@H](O)CO)OC(O)(C(=O)O)C[C@@H]1O` (stereo partly shown) [N-acetylneuraminic acid], for which, in [4] (carbohydrates, […]), the “Conc. required to inhibit 2 HA units, T. mobilensis” value came to 5 µg/mL. For the same molecule, the “Conc. required to inhibit 2 HA units, T. foetus” value in test [5] (carbohydrates, […]) was more than 200 µg/mL. Besides, the “Conc. required to inhibit 2 HA units, T. augusta” value in [6] (carbohydrates, […]) is 10 µg/mL. For the same molecule, in the test with T. mobilensis lectin (carbohydrates), the “Minimal Inhibitory Conc.” value worked out at 2.0 mM. Further, the “Inhibition of HA activity of purified lectin (in words)” value in the test with T. mobilensis lectin is on record as “inhibited”. Further, the Inhibition of hemolysis result in [1] is reported as “inhibited”. Moreover, in [3], the “Inhibition of attachment of parasites to CHO cells” value is recorded as “inhibited”. Moreover, the “Inhibition of hemagglutination” value in test [2] is reported as “inhibited”.
Consider `CC(=O)N[C@H]1[C@H]([C@H](O)[C@H](O)CO)OC(C(=O)O)=C[C@@H]1O` [2,3-dehydro-2-deoxy-N-acetylneuraminic acid], for which the “Minimal Inhibitory Conc.” value in the test with T. mobilensis lectin (carbohydrates) is recorded as more than 100 mM. The “Inhibition of HA activity of purified lectin (in words)” value with T. mobilensis lectin was “not inhibited”. In test [7], the “Inhibition of sialidase activity” value amounted to 50%. The Inhibition of hemolysis result in test [1] is “inhibited”.
Take `OC[C@H]1OC(O)[C@@H](O)[C@@H](O)[C@@H]1O` (stereo partly drawn) [D-mannose]: the “Conc. required to inhibit 2 HA units, T. mobilensis” value in test [4] (carbohydrates, […]) is more than 200 µg/mL. The “Conc. required to inhibit 2 HA units, T. foetus” value in test [5] (carbohydrates, […]) was more than 200 µg/mL. Also, in test [6] (carbohydrates, […]), the “Conc. required to inhibit 2 HA units, T. augusta” value was more than 200 µg/mL. Further, the “Minimal Inhibitory Conc.” value in the test with T. mobilensis lectin (carbohydrates) is listed as more than 100 mM. Also, the “Effect of specific carbohydrate on agglutinating activity of the appropriate lectin” value in the test with live T. mobilensis is “abolished agglutinating activity”.

B1: Fetuin: sialoconjugate (sialoglycoprotein) (protein, UniProt P12763 19-359, looked up)
Alpha-2-HS-glycoprotein: IPLDPVAGYKEPACDDPDTEQAALAAVDYINKHLPRGYKHTLNQIDSVKVWPRRPTGEVYDIEIDTLETTCHVLDPTPLANCSVRQQTQHAVEGDCDIHVLKQDGQFSVLFTKCDSSPDSAEDVRKLCPDCPLLAPLNDSRVVHAVEVALATFNAESNGSYLQLVEISRAQFVPLPVSVSVEFAVAATDCIAKEVVDPTKCNLLAEKQYGFCKGSVIQKALGGEDVRVTCTLFQTQPVIPQPQPDGAEAEAPSAVPDAAGPTPSAAGPPVASVVVGPSVVAVPLPLHRAHYDLRHTFSGVASVESSSGEAFHVGKTPIVGQPSIPGGPVRLCPGRIRYFKI
With B1, the “Conc. required to inhibit 2 HA units, T. mobilensis” value in [4] (sialoglycoproteins) was determined as 100 µg/mL. Moreover, the “Conc. required to inhibit 2 HA units, T. foetus” value in [5] (sialoglycoproteins) is 60 µg/mL. In [6] (sialoglycoproteins), the “Conc. required to inhibit 2 HA units, T. augusta” value amounted to 100 µg/mL. Further, the “Conc. required to Inhibit 2 HA Units” value in the test with live cells of T. foetus worked out at 60 µg/mL. For the same molecule, the “Minimal Inhibitory Conc.” value in the test with T. mobilensis lectin (glycoproteins or proteins) was found to be 8.33 µg/mL. The Inhibition of hemolysis entry in [1] is on record as “inhibited”.
